According to patent US9932637B2, “Genetic polymorphisms associated with cardiovascular disorders and drug response, methods of detection and uses thereof” (CELERA CORPORATION, priority 2003, dated 2018):

Test system: patients with prior myocardial infarction (CARE study)
Experiment: CARE: association of SNPs with pravastatin treatment in cardiovascular events prevention (logistic regression, odds ratio pravastatin vs placebo by genotype; Table 8)
Assay type: in vivo, human
Conditions: for Fatal/Non-fatal Atherosclerotic CV Disease, n/total (%) / Hosp. for Cardiovascular Disease, n/total (%) / Total Cardiovascular Disease Events, n/total (%) / Prava vs. Placebo Odds Ratio, 0 Rare Alleles / Prava vs. Placebo Odds Ratio, 1 Rare Alleles / Prava vs. Placebo Odds Ratio, 2 Rare Alleles / Fatal CHD/Definite Non-fatal MI, n/total (%) / Total Coronary Heart Disease Events, n/total (%): All Patients; for Fatal/Non-fatal Atherosclerotic CV Disease, n/total (%) / Hosp. for Cardiovascular Disease, n/total (%) / Total Cardiovascular Disease Events, n/total (%) / Fatal CHD/Definite Non-fatal MI, n/total (%) / Total Coronary Heart Disease Events, n/total (%): Prava; for Stroke, n/total (%): PECAM1 hCV16170911, All Patients, Prava arm
From the text: In order to identify genetic markers associated with acute coronary events (e.g. MI, stroke, unstable angina, congestive heart failure, etc.) or response to statin treatment for the prevention of coronary events, samples from the Cholesterol and Recurrent Events (CARE) study (a randomized multicentral double-blinded trial on secondary prevention of acute coronary events with pravastatin) (Sacks et al., 1991, Am. J. Cardiol. 68: 1436-1446) were genotyped. A well-documented myocardial infarction (MI) was one of the enrollment criteria for entry into the CARE study. Patients were enrolled in the CARE trial from 80 participating study centers. […] Patients were randomized to receive either 40 mg of pravastatin once daily or a matching placebo. The primary endpoint of the trial was death from coronary heart disease and the median duration of follow-up was 5.0 years (range, 4.0 to 6.2 years). […] Secondary endpoints of other related cardiovascular or metabolic disease events, and changes in clinical variables were also recorded in pravastatin-treated and placebo groups. All individuals included in the study had signed a written informed consent form and the study protocol was approved by the respective Institutional Review Boards (IRBs).
For genotyping SNPs in CARE patient samples, DNA was extracted from blood samples using conventional DNA extraction methods such as the QIA-amp kit from Qiagen. Genotypes were obtained on an ABI PRISM® 7900HT Sequence Detection PCR system (Applied Biosystems, Foster City, Calif.) by kinetic allele-specific PCR, similar to the method described by Germer et al. (Germer S., Holland M. J., Higuchi R. 2000, Genome Res. 10: 258-266).
Statistical analysis for association of SNPs with pravastatin treatment in cardiovascular events prevention (Table 8) was carried out using an overall logistic regression model that included an intercept, a parameter for the effect of a genotype containing two rare alleles versus a genotype containing no rare alleles, a parameter for the effect of a genotype containing one rare allele versus a genotype containing no rare alleles, a parameter for the effect of use of pravastatin versus the use of placebo, and parameters for the interaction effects between SNP genotypes and pravastatin use. The test of the overall model is a chi-square test with two degrees of freedom for analyses containing all three genotypes, and one degree of freedom for analyses containing two genotypes.
Effect sizes were estimated through odds ratios (pravastatin group versus placebo) for carriers of each genotype (groups of 0, 1, and 2 minor allele carriers). The effect was considered to be significant if p-value for testing whether any of the interactions between SNP genotypes and pravastatin use were <0.05. […] Odds ratios less than one indicate that the specific SNP allele has a protective effect and odds ratios greater than one indicate that the specific SNP allele has an adverse effect.

[1] = NPC1 hCV7490135, Cardiovascular Mortality
[2] = NPC1 hCV7490135, Fatal Atherosclerotic Cardiovascular Disease
[3] = NPC1 hCV7490135, Fatal/Non-fatal Atherosclerotic CV Disease
[4] = NPC1 hCV7490135, Hosp. for Cardiovascular Disease
[5] = NPC1 hCV7490135, Total Cardiovascular Disease Events
[6] = NPC1 hCV7490135, Total Coronary Heart Disease Events
[7] = NPC1 hCV25472673, Fatal CHD/Definite Non-fatal MI
[8] = NPC1 hCV25472673, Fatal/Non-fatal Atherosclerotic CV Disease
[9] = NPC1 hCV25472673, Hosp. for Cardiovascular Disease
[10] = NPC1 hCV25472673, Total Cardiovascular Disease Events
[11] = NPC1 hCV25472673, Total Coronary Heart Disease Events
[12] = PEMT hCV7443062, Fatal CHD/Definite Non-fatal MI

CC[C@H](C)C(=O)O[C@H]1C[C@H](O)C=C2C=C[C@H](C)[C@H](CC[C@@H](O)C[C@@H](O)CC(=O)O)[C@H]21 [pravastatin]
Fatal/Non-fatal Atherosclerotic CV Disease, n/total (%) (NPC1 hCV7490135, 2 Rare Alleles, n/total 93/324): (28.7%)
Hosp. for Cardiovascular Disease, n/total (%) (NPC1 hCV7490135, 2 Rare Alleles, n/total 117/324): (36.1%)
Total Cardiovascular Disease Events, n/total (%) (NPC1 hCV7490135, 2 Rare Alleles, n/total 119/324): (36.7%)
Prava vs. Placebo Odds Ratio, 0 Rare Alleles [1]: 1.30
Prava vs. Placebo Odds Ratio, 1 Rare Alleles [1]: 0.83
Prava vs. Placebo Odds Ratio, 2 Rare Alleles [1]: 0.20
Prava vs. Placebo Odds Ratio, 0 Rare Alleles [2]: 1.25
Prava vs. Placebo Odds Ratio, 1 Rare Alleles [2]: 0.83
Prava vs. Placebo Odds Ratio, 2 Rare Alleles [2]: 0.20
Prava vs. Placebo Odds Ratio, 0 Rare Alleles [3]: 1.07
Prava vs. Placebo Odds Ratio, 1 Rare Alleles [3]: 0.73
Prava vs. Placebo Odds Ratio, 2 Rare Alleles [3]: 0.56
Prava vs. Placebo Odds Ratio, 0 Rare Alleles [4]: 1.01
Prava vs. Placebo Odds Ratio, 1 Rare Alleles [4]: 0.76
Prava vs. Placebo Odds Ratio, 2 Rare Alleles [4]: 0.52
Prava vs. Placebo Odds Ratio, 0 Rare Alleles [5]: 1.02
Prava vs. Placebo Odds Ratio, 1 Rare Alleles [5]: 0.75
Prava vs. Placebo Odds Ratio, 2 Rare Alleles [5]: 0.52
Prava vs. Placebo Odds Ratio, 0 Rare Alleles [6]: 1.07
Prava vs. Placebo Odds Ratio, 1 Rare Alleles [6]: 0.72
Prava vs. Placebo Odds Ratio, 2 Rare Alleles [6]: 0.58
Fatal CHD/Definite Non-fatal MI, n/total (%) (NPC1 hCV25472673, 0 Rare Alleles, n/total 65/596): (10.9%)
Total Coronary Heart Disease Events, n/total (%) (NPC1 hCV25472673, 0 Rare Alleles, n/total 193/596): (32.4%)
Fatal/Non-fatal Atherosclerotic CV Disease, n/total (%) (NPC1 hCV25472673, 0 Rare Alleles, n/total 221/596): (37.1%)
Hosp. for Cardiovascular Disease, n/total (%) (NPC1 hCV25472673, 0 Rare Alleles, n/total 262/596): (44.0%)
Total Cardiovascular Disease Events, n/total (%) (NPC1 hCV25472673, 0 Rare Alleles, n/total 274/596): (46.0%)
Fatal CHD/Definite Non-fatal MI, n/total (%) (NPC1 hCV25472673, 1 Rare Allele, n/total 56/664): (8.4%)
Total Coronary Heart Disease Events, n/total (%) (NPC1 hCV25472673, 1 Rare Allele, n/total 186/664): (28.0%)
Fatal/Non-fatal Atherosclerotic CV Disease, n/total (%) (NPC1 hCV25472673, 1 Rare Allele, n/total 213/664): (32.1%)
Hosp. for Cardiovascular Disease, n/total (%) (NPC1 hCV25472673, 1 Rare Allele, n/total 255/664): (38.4%)
Total Cardiovascular Disease Events, n/total (%) (NPC1 hCV25472673, 1 Rare Allele, n/total 259/664): (39.0%)
Fatal CHD/Definite Non-fatal MI, n/total (%) (NPC1 hCV25472673, 2 Rare Alleles, n/total 19/242): (7.9%)
Total Coronary Heart Disease Events, n/total (%) (NPC1 hCV25472673, 2 Rare Alleles, n/total 59/242): (24.4%)
Fatal/Non-fatal Atherosclerotic CV Disease, n/total (%) (NPC1 hCV25472673, 2 Rare Alleles, n/total 68/242): (28.1%)
Hosp. for Cardiovascular Disease, n/total (%) (NPC1 hCV25472673, 2 Rare Alleles, n/total 88/242): (36.4%)
Total Cardiovascular Disease Events, n/total (%) (NPC1 hCV25472673, 2 Rare Alleles, n/total 90/242): (37.2%)
Prava vs. Placebo Odds Ratio, 0 Rare Alleles [7]: 1.00
Prava vs. Placebo Odds Ratio, 1 Rare Alleles [7]: 0.65
Prava vs. Placebo Odds Ratio, 2 Rare Alleles [7]: 0.41
Prava vs. Placebo Odds Ratio, 0 Rare Alleles [8]: 1.03
Prava vs. Placebo Odds Ratio, 1 Rare Alleles [8]: 0.73
Prava vs. Placebo Odds Ratio, 2 Rare Alleles [8]: 0.41
Prava vs. Placebo Odds Ratio, 0 Rare Alleles [9]: 1.02
Prava vs. Placebo Odds Ratio, 1 Rare Alleles [9]: 0.72
Prava vs. Placebo Odds Ratio, 2 Rare Alleles [9]: 0.40
Prava vs. Placebo Odds Ratio, 0 Rare Alleles [10]: 1.03
Prava vs. Placebo Odds Ratio, 1 Rare Alleles [10]: 0.71
Prava vs. Placebo Odds Ratio, 2 Rare Alleles [10]: 0.39
Prava vs. Placebo Odds Ratio, 0 Rare Alleles [11]: 1.01
Prava vs. Placebo Odds Ratio, 1 Rare Alleles [11]: 0.73
Prava vs. Placebo Odds Ratio, 2 Rare Alleles [11]: 0.44
Stroke, n/total (%) (0 Rare Alleles): (1.5%)
Stroke, n/total (%) (1 Rare Allele): (3.1%)
Stroke, n/total (%) (2 Rare Alleles): (0.9%)
Fatal CHD/Definite Non-fatal MI, n/total (%) (PEMT hCV7443062, 0 Rare Alleles, n/total 34/478): (7.1%)
Fatal CHD/Definite Non-fatal MI, n/total (%) (PEMT hCV7443062, 1 Rare Allele, n/total 72/735): (9.8%)
Fatal CHD/Definite Non-fatal MI, n/total (%) (PEMT hCV7443062, 2 Rare Alleles, n/total 34/305): (11.1%)
Prava vs. Placebo Odds Ratio, 0 Rare Alleles [12]: 0.42
Prava vs. Placebo Odds Ratio, 1 Rare Alleles [12]: 0.87
